Experimental findings from patent US20250346587A1, “NITROGEN-CONTAINING FIVE-MEMBERED HETEROCYCLIC DERIVATIVES AS CHECKPOINT KINASE 1 INHIBITOR AND USES THEREOF” (SPEROGENIX THERAPEUTICS LIMITED, priority 2022, published 2025) are described below.

One series has as its target CHK-1 kinase (Homo sapiens (Human), UniProt O14757). Description: CHK-1 % inhibition kinase assay (TR-FRET). To be noted: ATP 15 μM; for inhibition at 0.03 µM / inhibition at 0.3 µM: CHK1 enzyme; for inhibition at 0.03 µM: compound 30 nM; for inhibition at 0.3 µM: compound 300 nM; for IC50: TR-FRET, read-out: CHK1 IC50. It counts as biochemical. The protocol: Inhibition of CHK-1 kinase or percent inhibition at defined concentrations was determined by TR-FRET assay. Kinase reactions were performed in a 20 μL volume in low-volume 384-well plates (Cat #Corning 4511). The concentration of substrate Fluorescein-CREBtide was maintained at 0.2 μM in the assay, and the kinase reaction buffer consisted of 50 mM HEPES pH 7.5, 0.01% BRIJ-35, 10 mM MgCl2, 1 mM EGTA. Serially diluted compounds (3-fold) in DMSO (0.5% in final reaction) were incubated with cocktail of CHK-1 kinase (6 nM; Cat #PR3959B, ThermoFisher), Fluorescein-CREBtide (0.2 μM; Cat #PV3508, ThermoFisher), ATP (15 μM; Cat #A1852, Sigma), and kinase reaction buffer. After 1 hour kinase reactions at room temperature, 10 μL of Detection mix (8 nM LanthaScreen® Tb-CREB [pSer133] antibody, Cat #PV3542, ThermoFisher with 20 mM EDTA in TR-FRET Buffer, Cat #PV3574, ThermoFisher) was added, and the plate was read with a plate reader (Synergy™ NEO; Biotek) for TR-FRET.
The resulting TR-FRET emission ratio was used to calculate the percent inhibition by normalizing to the control using the following formula: […]

Series [1] can be described thus: Microsomal stability assay, human liver microsome. It is filed as in vitro ADME. To be noted: liver microsomes, pH 7.4, 0.2 mg/mL, 1 μM compound, 37° C., read-out: Clint HLM. The protocol:
(§1) Incubation mixture contained 0.2 mg/mL microsomes, 1 mmol NADPH, and test compound at 1 μM in 100 mmol potassium phosphate buffer at pH 7.4. The mixtures were incubated at 37° C. for 5, 15, and 30 minutes. Aliquots of the mixtures were taken at 0, 5, 15 and 30 minutes and quenched with chilled Acetonitrile:Methanol (50:50) containing internal standard. Following completion of incubation, samples were centrifuged at 4,000 rpm at 4° C. The supernatant was analyzed by LC-MS/MS and half-life, as well as intrinsic clearance (Clint), were calculated.

The nature of series [2]: Microsomal stability assay, mouse liver microsome. It is filed as in vitro ADME. The settings on record: liver microsomes, pH 7.4, 0.2 mg/mL, 1 μM compound, 37° C., read-out: Clint MLM. As to the method:
as §1

Series [3] in a line: Microsomal stability assay, rat liver microsome. It is filed as in vitro ADME. To be noted: liver microsomes, pH 7.4, 0.2 mg/mL, 1 μM compound, 37° C., read-out: Clint RLM. The protocol:
as §1

Series [4] can be described thus: Caco-2 cell permeability assay. It counts as in vitro ADME. The settings on record: human; for Papp A→B at 120 min: Caco-2, A to B; for Papp A→B at 120 min / Papp B→A at 120 min: pH 7.4; for Papp B→A at 120 min: Caco-2, B to A. As to the method:
After thawed, Caco-2 cells were cultured in the medium containing 10% FBS, 1% Sodium pyruvate, 1% NEAA and 1% Glutamax MEM, then were placed in the incubator containing 5% CO2 at 37° C., and the culture medium then was replaced every 2-3 days. When the confluence reached 80%, the subculture was carried out. Add 5 mL of 1 M HEPES to 500 mL of HBSS for preparing transport buffer (pH 7.4), and the final concentration of HEPES was 10 mM. Before the transport study (day 21-28), take out the culture medium from the cell culture plate, wash it twice with preheated HBSS buffer (10 mM HEPES, pH 7.4), and add 100 μL HBSS buffer to each well. After incubation at 37° C. for 30 minutes, Teer value was measured by cell resistance meter (Millicell-ERS2) to confirm the integrity of monolayer cells. Discard the HBSS buffer, transfer the upper plate containing the cell monolayer membrane to the corresponding receiving plate, add the test compound solution or buffer to the top (side A) and the bottom (side B) respectively, put the cell plate into the corresponding 96 well receiving plate, and add the prepared positive control compound, test compound or HBSS buffer (with 0.5% BSA) on side A or side B of the filter membrane of Transwell cell plate according to the following groups, incubate cell plates at 37° C. When incubated for 5 minutes, 8 μL sample solutions were taken from the side A and the side B respectively and add 72 μL transport buffer (diluted 10 times) as TO of the initial solution. After 120 minutes of incubation, collect the samples at both ends of the filter membrane of Transwell cell plate; take 80 μL sample solution from the receiving side as the sample on the receiving side after transport, meanwhile take 8 μL sample solution from the administration side and then mix with 72 μL transport buffer, the well-mixed solution was used as the sample on the administration side after transport. After collecting bilateral samples, tap gently, discard the remaining solution in the cell plate, wash the cell plate with transport buffer; and to each well, add 100 μL acetonitrile solution containing internal standard working solution to lyse cells; After mixing well by blowing up and down, take 80 μL per well cell lysate as the sample after cell lysis. After collecting all samples in the transport system (TO sample from receiving side and administration side), 160 μL IS/ACN solution was added to each well, 80 μL IS/ACN solution was added to the collected lysate sample, and then seal it. Shake for 10 minutes and store the sample plate at −20° C. before LC-MS/MS analysis.
The following equation are used to calculate the apparent permeability coefficient (Papp, cm/s), the efflux ratio (ER), the solution recovery (% Recovery) and the total recovery (% Total Recovery).
Where, • Vreceiver is the volume of solution at the receiving end (0.25 mL for A to B and 0.1 mL for B to A); • Vdonor is the volume of the solution at the administration end (0.1 mL for A to B and 0.25 mL for B to A); • Vlysate is the volume of cell lysate (0.1 mL); • Area is the relative surface area of the cell monolayer (0.0804 cm^2); • Time is the incubation time (7200 s); • [drug]receiver is the drug concentration (nM) at the receiving end or the control compound; • [drug]donor is the concentration of drug or control compound at the administration end (nM); • [drug]lysate is the concentration of drug or control compound in cell lysate (nM); • [drug]initial is the initial concentration of the test or control compound (nM).

The nature of series [5]: Kinetic solubility assay (nephelometry). To be noted: PBS, 37 °C, pH 7.4, aqueous buffer, kinetic from dmso stock.
Experimental: (§2) Test articles were serially diluted in DMSO from concentration range of 10 mM to 0.078 mM in 96 well v-bottom dilution plate (#3363, Corning). 1 μL of test article from each well was transferred to 96 well flat bottom clear plates (#655101, Greiner) containing 99 μL of PBS at pH-7.4, which makes the test drug final concentration range from 100 μM to 0.78 μM. Samples were incubated for 1 hour at 37° C. followed by measurement of light scattering at 625 nm with a laser based micro plate Nephelometer (Nephlostar Plus, BMG Labtech). Solubility concentration (μM) was then calculated by segmental regression with Neplometer as Readout.
The nature of the next series: physchem. To be noted: 37 °C, pH 7.4, aqueous buffer, kinetic from dmso stock.
The mark [6] stands for this setting: Caco-2, pH 7.4, Caco-2, solution recovery, A to B, read-out: Recovery % A to B.
[7] abbreviates: Caco-2, pH 7.4, Caco-2, solution recovery, B to A, read-out: Recovery % B to A.
Setting [8] is: Caco-2, pH 7.4, Caco-2, total recovery with cell lysate, A to B, read-out: Recovery % with Cell Lysate A to B.
Where [9] appears, read: Caco-2, pH 7.4, Caco-2, total recovery with cell lysate, B to A, read-out: Recovery % with Cell Lysate B to A.

Values after ≈ are worked out from the molar mass of the structure shown. Read-outs that look alike come from different tables or passages of the source.

Chain of CHK-1 kinase (O14757 whole entry): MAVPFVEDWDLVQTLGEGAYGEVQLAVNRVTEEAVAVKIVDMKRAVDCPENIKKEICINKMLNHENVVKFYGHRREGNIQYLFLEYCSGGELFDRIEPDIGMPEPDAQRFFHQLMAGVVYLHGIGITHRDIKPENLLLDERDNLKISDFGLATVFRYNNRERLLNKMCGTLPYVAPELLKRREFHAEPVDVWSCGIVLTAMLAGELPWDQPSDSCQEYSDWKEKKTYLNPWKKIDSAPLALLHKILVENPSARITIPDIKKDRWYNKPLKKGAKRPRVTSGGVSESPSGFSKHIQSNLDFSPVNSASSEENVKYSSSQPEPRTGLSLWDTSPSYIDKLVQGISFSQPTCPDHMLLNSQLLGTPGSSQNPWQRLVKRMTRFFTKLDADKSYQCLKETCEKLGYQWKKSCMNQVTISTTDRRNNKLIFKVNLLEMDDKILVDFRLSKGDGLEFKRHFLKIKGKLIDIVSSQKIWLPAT
Experimental for physchem: as §2

In the case of `N#Cc1cnc(Nc2cc(-c3ccccc3OCC3CCCNC3)on2)cn1` (centres unmarked) [Compound 1.3, 5-(5-(2-(piperidin-3-ylmethoxy)phenyl)isoxazol-3-ylamino) pyrazine-2-carbonitrile], the inhibition at 0.03 µM on CHK-1 kinase was determined as 50%. In addition, on CHK-1 kinase, the inhibition at 0.3 µM was found to be 97%. Moreover, the half-maximal inhibitory concentration (IC50) at CHK-1 kinase was 7.77 nM. Moreover, the microsomal CLint at 1 μM in series [1] came to 47 µL/min/mg; in series [2] it was 68 µL/min/mg; in series [3], 61 µL/min/mg. The recovery at 120 min amounted to 54.7% in series [4] (setting [6]), 103% in series [4] (setting [7]), 89% in series [4] (setting [8]) and 107% in series [4] (setting [9]). The Papp A→B at 120 min in series [4] is 3.4 ×10⁻⁶ cm/s. The Papp B→A at 120 min in series [4] is 11.2 ×10⁻⁶ cm/s. The compound also came in with a kinetic solubility at 1 h in series [5] of 100 µM (≈ 37.6 µg/mL).

Turning to `N#Cc1cnc(Nc2cc(-c3ccccc3OCC3CNCCO3)on2)cn1` (centres unmarked) [Compound 1.1, 5-(5-(2-(morpholin-2-ylmethoxy)phenyl)isoxazol-3-ylamino) pyrazine-2-carbonitrile], the inhibition at 0.03 µM at CHK-1 kinase was 49%. On CHK-1 kinase, the inhibition at 0.3 µM amounted to 88%. For the same compound, the half-maximal inhibitory concentration (IC50) on CHK-1 kinase stood at 67.7 nM. Besides, the microsomal CLint at 1 μM came out at 32 µL/min/mg in series [1], 100 µL/min/mg in series [2] and 58 µL/min/mg in series [3]. Besides, the recovery at 120 min stood at 69% in series [4] (setting [6]), 102% in series [4] (setting [7]), 94.1% in series [4] (setting [8]) and 107% in series [4] (setting [9]). For the same compound, in series [4], the Papp A→B at 120 min turned out to be 7 ×10⁻⁶ cm/s. In series [4], this compound displayed a Papp B→A at 120 min of 8.7 ×10⁻⁶ cm/s. The solubility (kinetic) at 1 h in series [5] stood at 44 µM (≈ 16.6 µg/mL).

Consider `COc1cc(C2=CCNCC2)ccc1-c1cc(Nc2cnc(C#N)cn2)on1` [Compound 1.9, 5-(3-(2-methoxy-4-(1,2,3,6-tetrahydropyridin-4-yl)phenyl)isoxazol-5-ylamino) pyrazine-2-carbonitrile], for which, on CHK-1 kinase, the inhibition at 0.03 µM came to 33%, the inhibition at 0.3 µM is 31% and the IC50 was over 10000 nM. In addition, the microsomal CLint at 1 μM in series [1] amounted to 159 µL/min/mg. Further, in series [2], the microsomal CLint at 1 μM amounted to 83 µL/min/mg. Further, in series [3], the microsomal CLint at 1 μM worked out at 85 µL/min/mg. Besides, in “physchem”, the kinetic solubility at 1 h stood at 100 µM (≈ 37.4 µg/mL).

As for `N#Cc1cnc(Nc2cc(-c3ccccc3OCC3CCNCC3)on2)cn1` [Compound 1.2, 5-(5-(2-(piperidin-4-ylmethoxy)phenyl)isoxazol-3-ylamino) pyrazine-2-carbonitrile], the inhibition at 0.03 µM at CHK-1 kinase was 36%. Further, the inhibition at 0.3 µM at CHK-1 kinase worked out at 85%. The IC50 at CHK-1 kinase was determined as 13.3 nM. For the same compound, the microsomal CLint at 1 μM in series [1] amounted to 45 µL/min/mg; in series [2], 39 µL/min/mg; in series [3] it was 27 µL/min/mg. Besides, the recovery at 120 min in series [4] (setting [6]) was 67.7%; in series [4] (setting [7]), 103%; in series [4] (setting [8]), 93.9%; in series [4] (setting [9]), 108%. Also, in series [4], the Papp A→B at 120 min was determined as 5.35 ×10⁻⁶ cm/s. In series [4], this compound returned a basolateral-to-apical permeability (Papp B→A) at 120 min of 9.75 ×10⁻⁶ cm/s. The compound also returned a solubility (kinetic) at 1 h in series [5] of 45.6 µM (≈ 17.2 µg/mL).

On to `COc1cc(C2=CCN(C)CC2)ccc1-c1cc(Nc2cnc(C#N)cn2)on1` [Compound 1.22, 5-(3-(2-methoxy-4-(1-methyl-1,2,3,6-tetrahydropyridin-4-yl)phenyl)isoxazol-5-ylamino) pyrazine-2-carbonitrile], for which the inhibition at 0.03 µM on CHK-1 kinase worked out at 13.7%. Also, the inhibition at 0.3 µM on CHK-1 kinase worked out at 11%. Further, the figures for the microsomal CLint at 1 μM in series [1], in series [2] and in series [3] were 169 µL/min/mg, 313 µL/min/mg and 142 µL/min/mg, respectively. Also, the solubility (kinetic) at 1 h in “physchem” worked out at 28.4 µM (≈ 11 µg/mL).

On to `COc1cc(C2=CCNCC2)ccc1-c1cc(Nc2cnc(C#N)cn2)no1` [Compound 1.19, 5-(5-(2-methoxy-4-(1,2,3,6-tetrahydropyridin-4-yl)phenyl)isoxazol-3-ylamino) pyrazine-2-carbonitrile], for which the inhibition at 0.03 µM on CHK-1 kinase stood at 15.1%. The inhibition at 0.3 µM at CHK-1 kinase amounted to 50.5%. Further, the microsomal CLint at 1 μM in series [1] was 183 µL/min/mg; in series [2], 239 µL/min/mg; in series [3], 88 µL/min/mg. This compound gave a kinetic solubility at 1 h in “physchem” of 27.6 µM (≈ 10.3 µg/mL).

Turning to `N#Cc1cnc(Nc2cc(-c3cc4ccccc4cc3OCC3CCNCC3)[nH]n2)cn1` [Compound 2.1, 5-(5-(3-(piperidin-4-ylmethoxy)naphthalen-2-yl)-1H-pyrazol-3-ylamino) pyrazine-2-carbonitrile], at CHK-1 kinase, the inhibition at 0.03 µM is 27%, the inhibition at 0.3 µM is 91% and the IC50 is 2.46 nM. For the same compound, the microsomal CLint at 1 μM in series [1] worked out at 25 µL/min/mg. In addition, the microsomal CLint at 1 μM in series [2] is 101 µL/min/mg. The microsomal CLint at 1 μM in series [3] was determined as 36 µL/min/mg. This compound showed a solubility (kinetic) at 1 h in series [5] of 34.7 µM (≈ 14.8 µg/mL).
